Reference: the NIST ThermoML archive (doi:10.1016/j.jct.2017.01.016)
± gives the expanded uncertainty stated by the source.

Columns and labels:
[1] = xn = mol fraction of the nth substance listed; conditions: 101 kPa, Liquid; for viscosity: Capillary tube (Ostwald / Ubbelohde) method; for speed of sound: Frequency=3 MHz, Linear variable-path acoustic interferometer
[2] = 101 kPa, Liquid; for viscosity: Capillary tube (Ostwald / Ubbelohde) method; for speed of sound: Frequency=3 MHz, Linear variable-path acoustic interferometer

C1COCCO1 [1,4-dioxane] + Cc1ccccc1C
[1], x1 = 1
Conditions	speed of sound [m/s]	viscosity [mPa·s]
293.15 K	1367.2 ± 1.7	1.306 ± 0.027
298.15 K	1344.7 ± 1.7	1.195 ± 0.025
303.15 K	1323.1 ± 1.7	1.096 ± 0.023
308.15 K	1301.2 ± 1.7	1.014 ± 0.021
313.15 K	1279.7 ± 1.6	0.945 ± 0.02
318.15 K	1258.6 ± 1.6	0.884 ± 0.018

Cc1ccccc1 [toluene]
[2]
Conditions	speed of sound [m/s]	viscosity [mPa·s]
293.15 K	1328.6 ± 1.6	0.5885 ± 0.012
298.15 K	1307.3 ± 1.6	0.5541 ± 0.012
303.15 K	1285.5 ± 1.6	0.5232 ± 0.011
308.15 K	1264.2 ± 1.6	0.495 ± 0.01
313.15 K	1242.4 ± 1.6	0.4662 ± 0.0098
318.15 K	1220.7 ± 1.6	0.4384 ± 0.0092

c1ccccc1 [benzene] + C1COCCO1
[1], x2 = 0
Conditions	speed of sound [m/s]	viscosity [mPa·s]
293.15 K	1324.4 ± 1.6	0.647 ± 0.013
298.15 K	1299.5 ± 1.6	0.6048 ± 0.013
303.15 K	1275.7 ± 1.6	0.5672 ± 0.012
308.15 K	1252.4 ± 1.6	0.5322 ± 0.011
313.15 K	1229.3 ± 1.6	0.498 ± 0.01
318.15 K	1207.8 ± 1.6	0.4672 ± 0.0098

Cc1cc(C)cc(C)c1 [1,3,5-trimethylbenzene]
[2]
Conditions	speed of sound [m/s]	viscosity [mPa·s]
293.15 K	1360.4 ± 1.7	0.7056 ± 0.015
298.15 K	1339.8 ± 1.7	0.6592 ± 0.014
303.15 K	1319.6 ± 1.7	0.6188 ± 0.013
308.15 K	1300.2 ± 1.7	0.5792 ± 0.012
313.15 K	1280.4 ± 1.7	0.5422 ± 0.011
318.15 K	1263 ± 1.7	0.5066 ± 0.011

Cc1ccccc1 [toluene] + C1COCCO1
[1], x2 = 0
Conditions	speed of sound [m/s]	viscosity [mPa·s]
293.15 K	1328.6 ± 1.6	0.5885 ± 0.012
298.15 K	1307.3 ± 1.6	0.5541 ± 0.012
303.15 K	1285.5 ± 1.6	0.5232 ± 0.011
308.15 K	1264.2 ± 1.6	0.495 ± 0.01
313.15 K	1242.4 ± 1.6	0.4662 ± 0.0098
318.15 K	1220.7 ± 1.6	0.4384 ± 0.0092

Cc1ccccc1C [1,2-dimethylbenzene]
[2]
Conditions	speed of sound [m/s]	viscosity [mPa·s]
293.15 K	1367.7 ± 1.7	0.8066 ± 0.017
298.15 K	1347.5 ± 1.7	0.7576 ± 0.016
303.15 K	1329.4 ± 1.7	0.7132 ± 0.015
308.15 K	1313.3 ± 1.7	0.669 ± 0.014
313.15 K	1298.5 ± 1.6	0.6315 ± 0.013
318.15 K	1285.2 ± 1.6	0.5972 ± 0.013

Cc1ccc(C)cc1 [1,4-dimethylbenzene]
[2]
Conditions	speed of sound [m/s]	viscosity [mPa·s]
293.15 K	1328.4 ± 1.7	0.6505 ± 0.014
298.15 K	1307.4 ± 1.7	0.6115 ± 0.013
303.15 K	1287.3 ± 1.6	0.5766 ± 0.012
308.15 K	1267.6 ± 1.6	0.544 ± 0.011
313.15 K	1248.3 ± 1.6	0.5132 ± 0.011
318.15 K	1229.8 ± 1.6	0.4862 ± 0.01

c1ccccc1 [benzene]
[2]
Conditions	speed of sound [m/s]	viscosity [mPa·s]
293.15 K	1324.4 ± 1.6	0.647 ± 0.013
298.15 K	1299.5 ± 1.6	0.6048 ± 0.013
303.15 K	1275.7 ± 1.6	0.5672 ± 0.012
308.15 K	1252.4 ± 1.6	0.5322 ± 0.011
313.15 K	1229.3 ± 1.6	0.498 ± 0.01
318.15 K	1207.8 ± 1.6	0.4672 ± 0.0098

C1COCCO1 [1,4-dioxane]
[2]
Conditions	speed of sound [m/s]	viscosity [mPa·s]
293.15 K	1367.2 ± 1.7	1.306 ± 0.027
298.15 K	1344.7 ± 1.7	1.195 ± 0.025
303.15 K	1323.1 ± 1.7	1.096 ± 0.023
308.15 K	1301.2 ± 1.7	1.014 ± 0.021
313.15 K	1279.7 ± 1.6	0.945 ± 0.02
318.15 K	1258.6 ± 1.6	0.884 ± 0.018

Cc1cccc(C)c1 [1,3-dimethylbenzene]
[2]
Conditions	speed of sound [m/s]	viscosity [mPa·s]
293.15 K	1346.7 ± 1.7	0.6184 ± 0.013
298.15 K	1323.6 ± 1.7	0.584 ± 0.012
303.15 K	1302.4 ± 1.7	0.5517 ± 0.012
308.15 K	1282.3 ± 1.6	0.5229 ± 0.011
313.15 K	1262.3 ± 1.6	0.4938 ± 0.01
318.15 K	1243 ± 1.6	0.468 ± 0.0099

C1COCCO1 [1,4-dioxane] + Cc1ccc(C)cc1
[1], x1 = 1
Conditions	speed of sound [m/s]	viscosity [mPa·s]
293.15 K	1367.2 ± 1.7	1.306 ± 0.027
298.15 K	1344.7 ± 1.7	1.195 ± 0.025
303.15 K	1323.1 ± 1.7	1.096 ± 0.023
308.15 K	1301.2 ± 1.7	1.014 ± 0.021
313.15 K	1279.7 ± 1.6	0.945 ± 0.02
318.15 K	1258.6 ± 1.6	0.884 ± 0.018

C1COCCO1 [1,4-dioxane] + Cc1cccc(C)c1
[1], x1 = 1
Conditions	speed of sound [m/s]	viscosity [mPa·s]
293.15 K	1367.2 ± 1.7	1.306 ± 0.027
298.15 K	1344.7 ± 1.7	1.195 ± 0.025
303.15 K	1323.1 ± 1.7	1.096 ± 0.023
308.15 K	1301.2 ± 1.7	1.014 ± 0.021
313.15 K	1279.7 ± 1.6	0.945 ± 0.02
318.15 K	1258.6 ± 1.6	0.884 ± 0.018

C1COCCO1 [1,4-dioxane] + Cc1cc(C)cc(C)c1
[1], x1 = 1
Conditions	speed of sound [m/s]	viscosity [mPa·s]
293.15 K	1367.2 ± 1.7	1.306 ± 0.027
298.15 K	1344.7 ± 1.7	1.195 ± 0.025
303.15 K	1323.1 ± 1.7	1.096 ± 0.023
308.15 K	1301.2 ± 1.7	1.014 ± 0.021
313.15 K	1279.7 ± 1.6	0.945 ± 0.02
318.15 K	1258.6 ± 1.6	0.884 ± 0.018
